Measured values reported in the SangsterLogP compilation.
Values belong to the compound of their own block, whether it stands above or below them.

Key:
[1] = method code SF-HPLC, from DOI: 10.1002/jps.2600830805, PMID: 7983590; conditions: pH 12.2
[2] = method code SF, from DOI: 10.1021/jm00088a007, PMID: 1588555; conditions: pH 7.4
[3] = method code SF-HPLC, from DOI: 10.1016/j.ijpharm.2013.10.039, PMID: 24184034; conditions: pH 7.0
[4] = method code SF-AS, from DOI: 10.1016/s0960-894x(99)00527-2, PMID: 10571171; conditions: pH 7.0
[5] = method code SF, from DOI: 10.3139/113.110173
[6] = not given; remark: listed apart in the source
[7] = method code SF, from Moerlein, M.; Dischino, D.; Raymond, N.; Weitl, L.; Welch, J. (1982). Factors affecting the cerebral uptake of gallium complexes. J Labelled Comp Radiopharm, 19(11-12)1421-1422.; conditions: pH 7.0
[8] = method code SF-FL, from DOI: 10.1021/acs.jmedchem.5b00420, PMID: 26263187
[9] = method code SF-HPLC, from DOI: 10.1023/a:1016059008464, PMID: 8899834

Compound: CCCCC(NC(C)=O)C(=O)NC1NCCCCC(C(N)=O)NC(=O)C(Cc2c[nH]c3ccccc23)NC(=O)C(CCCC(=N)N)NC(=O)C(Cc2ccccc2)NC(=O)C(Cc2cnc[nH]2)NC1=O (stereo not given)
- logD [1]: 1.1

Compound: CC(=O)O[C@@H]1C(=O)[C@]23C[C@H]2C[C@H]2OC[C@@]2(OC(C)=O)[C@H]3[C@H](OC(=O)c2ccccc2)[C@]2(O)C[C@H](OC(=O)[C@H](O)[C@@H](NC(=O)OC(C)(C)C)c3ccccc3)C(C)=C1C2(C)C
- logD [3]: 2.06

Compound: O=C(NCCCC(CO)(CCCNC(=O)c1ccc2cccnc2c1O)CCCNC(=O)c1ccc2cccnc2c1O)c1ccc2cccnc2c1O
- logD [4]: 1.2

Compound: CCCCCCCCCCCOCCOCCOCCOCCOCCOCCOCCOCCOCCOCCOCCOCCOCCOCCOCCOCCOCCOCCOCCOCCOCCOCCOCCOCCOCCOCCOCCOCCO
- logP [5]: 0.31

Compound: Cc1ccccc1NC(=O)Nc1ccc(CC(=O)N[C@@H](CCCCNC(=O)/C=C/c2cccnc2)C(=O)N[C@@H](CCCC(=O)O)C(=O)NC2(C(N)=O)CCCCC2)cc1
- logP [6]: 3.26

Compound: CCCCCCN(CCCCN(CCCN(CCCCCC)C(=O)c1cccc(O)c1O)C(=O)c1cccc(O)c1O)C(=O)c1cccc(O)c1O
- logD [7]: -1.52

Second part, the compound after the results:

- logD [2]: 4.3
Compound: CCCC[C@H](O[C@@H](Cc1ccccc1)C(=O)N1CCC(OCOC)CC1)C(=O)NC(CC1CCCCC1)C(O)CC(C(=O)NCCCN1CCOCC1)C(C)C (stereo not given in full)

- logP: 2.39
Compound: COC1C(OC(C)=O)CC(=O)OC(C)CC=CC=CC(O)C(C)CC(CC=O)C1OC1OC(C)C(OC2C[C@@](C)(O)C(OC(=O)CC(C)C)C(C)O2)C(N(C)C)C1O (stereo not given in full)

- logP [8]: -0.02
Compound: COc1cccc2c1C(=O)c1c(O)c3c(c(O)c1C2=O)CC(O)(C(=O)CO)CC3OC1CC(NC(=O)C2CCC(CN3C(=O)CC(SCCN)C3=O)CC2)C(O)C(C)O1 (stereo not given)

- logP [9]: 6.94
Compound: CC(C)CCC[C@@H](C)[C@H]1CC[C@H]2[C@@H]3CC[C@H]4C[C@@H](CCC=C(c5cc(Cl)c(O)c(C(=O)O)c5)c5cc(Cl)c(O)c(C(=O)O)c5)CC[C@]4(C)[C@H]3CC[C@]12C
